Our source for the T/C values is PubChem BioAssay AID248 (DTP/NCI, 2004).

In this assay the test system is L1210 leukemia ip in BDF1 mice, survival T/C. Briefly: NCI In Vivo Anticancer Drug Screen. Data for tumor model L1210 Leukemia (intraperitoneal) in B6D2F1 (BDF1) mice. The conditions noted are these: endpoint: mean survival time, higher = longer survival. In short, it runs like this:
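Tumor was transplanted into mice, which were then dosed with test compound or vehicle alone. Survival was recorded for each group, and the treated figure was expressed relative to the control figure.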

The mark [1] stands for this setting: dose: 100.0 mg/kg/injection, schedule: Q01DX009 (ip), vehicle: Klucel (hydroxypropylcellulose) (HPC).
The mark [2] stands for this setting: dose: 200.0 mg/kg/injection, schedule: Q01DX009 (ip), vehicle: Klucel (hydroxypropylcellulose) (HPC).
Setting [3] is: dose: 400.0 mg/kg/injection, schedule: Q01DX009 (ip), vehicle: Klucel (hydroxypropylcellulose) (HPC).
The mark [4] stands for this setting: dose: 50.0 mg/kg/injection, schedule: Q01DX001 (ip), vehicle: saline.
[5] abbreviates: dose: 100.0 mg/kg/injection, schedule: Q01DX001 (ip), vehicle: saline.
Where [6] appears, read: dose: 100.0 mg/kg/injection, schedule: Q01DX009 (ip), vehicle: saline.
[7] abbreviates: dose: 100.0 mg/kg/injection, schedule: Q04DX003 (ip), vehicle: saline.
[8] abbreviates: dose: 200.0 mg/kg/injection, schedule: Q01DX001 (ip), vehicle: saline.
Setting [9] is: dose: 200.0 mg/kg/injection, schedule: Q01DX009 (ip), vehicle: saline.
The mark [10] stands for this setting: dose: 200.0 mg/kg/injection, schedule: Q04DX003 (ip), vehicle: saline.
Setting [11] is: dose: 400.0 mg/kg/injection, schedule: Q01DX001 (ip), vehicle: saline.
Where [12] appears, read: dose: 400.0 mg/kg/injection, schedule: Q01DX009 (ip), vehicle: saline.
[13] abbreviates: dose: 400.0 mg/kg/injection, schedule: Q04DX003 (ip), vehicle: saline.
The mark [14] stands for this setting: dose: 100.0 mg/kg/injection, schedule: Q04DX002 (ip), vehicle: Klucel (hydroxypropylcellulose) (HPC).
The mark [15] stands for this setting: dose: 200.0 mg/kg/injection, schedule: Q04DX002 (ip), vehicle: Klucel (hydroxypropylcellulose) (HPC).
Setting [16] is: dose: 400.0 mg/kg/injection, schedule: Q04DX002 (ip), vehicle: Klucel (hydroxypropylcellulose) (HPC).

Several values for one entry are separate records, joined by “and”; a condition that tells them apart may be missing. Equal values may be shown once. Toxic doses and inconclusive results are not listed.

Turning to `CCCCCCCCc1ccc(C(C)=O)cc1`, the T/C is 94 % of control under setting [1]; 102 % of control (dose: 100.0 mg/kg/injection, schedule: Q04DX003 (ip), vehicle: Klucel (hydroxypropylcellulose) (HPC)); 96 % of control under setting [2]; 100 % of control (dose: 200.0 mg/kg/injection, schedule: Q04DX003 (ip), vehicle: Klucel (hydroxypropylcellulose) (HPC)); 86 % of control under setting [3]; 107 % of control (dose: 400.0 mg/kg/injection, schedule: Q04DX003 (ip), vehicle: Klucel (hydroxypropylcellulose) (HPC)).

On to `C(=N/N=C(N/N=C/c1ccccc1)N/N=C/c1ccccc1)/c1ccccc1`, for which the T/C (dose: 15.0 mg/kg/injection, schedule: Q01DX Z (ip), vehicle: carboxymethylcellulose (CMC)) is 95 % of control; the T/C (dose: 30.0 mg/kg/injection, schedule: Q01DX Z (ip), vehicle: carboxymethylcellulose (CMC)) was 95 % of control; the T/C (dose: 60.0 mg/kg/injection, schedule: Q01DX Z (ip), vehicle: carboxymethylcellulose (CMC)) was 92 % of control; the T/C (dose: 120.0 mg/kg/injection, schedule: Q01DX Z (ip), vehicle: carboxymethylcellulose (CMC)) is 92 % of control; the T/C (dose: 188.0 mg/kg/injection, schedule: Q01DX Z (oral), vehicle: carboxymethylcellulose (CMC)) was 95 % of control; the T/C (dose: 375.0 mg/kg/injection, schedule: Q01DX Z (oral), vehicle: carboxymethylcellulose (CMC)) was 105 % of control. Further, the T/C by setting is: (dose: 750.0 mg/kg/injection, schedule: Q01DX Z (oral), vehicle: carboxymethylcellulose (CMC)) 110 % of control; (dose: 1500.0 mg/kg/injection, schedule: Q01DX Z (oral), vehicle: carboxymethylcellulose (CMC)) 100 % of control.

For `O=NN(CCCl)C(=O)Nc1ccc(F)cc1`, the T/C (dose: 9.37 mg/kg/injection, schedule: Q01DX001 (ip), vehicle: carboxymethylcellulose (CMC)) was 150 % of control; the T/C (dose: 12.5 mg/kg/injection, schedule: Q01DX001 (ip), vehicle: carboxymethylcellulose (CMC)) is 162 % of control; the T/C (dose: 18.75 mg/kg/injection, schedule: Q01DX001 (ip), vehicle: carboxymethylcellulose (CMC)) is 171 % of control; the T/C (dose: 25.0 mg/kg/injection, schedule: Q01DX001 (ip), vehicle: carboxymethylcellulose (CMC)) was 253 % of control; the T/C (dose: 37.5 mg/kg/injection, schedule: Q01DX001 (ip), vehicle: carboxymethylcellulose (CMC)) is 171 % of control.

As for `Cc1cc(C)c(NC(=O)Nc2ccc(C(Cl)(Cl)Cl)cc2)c(C)c1`, the T/C reads like this: under setting [1], 95 % of control; under setting [2], 98 % of control; under setting [3], 94 % of control.

Take `ClC1=C(Cl)C2(Cl)C3(Cl)C(Cl)=C(Cl)C(Cl)(C34OCCO4)C2(Cl)C12OCCO2` (configuration not stated): the T/C runs as follows: under setting [4], 107 % of control; under setting [5], 105 % of control; under setting [6], 90 % of control; under setting [7], 98 % of control; under setting [8], 94 % of control; under setting [9], 93 % of control. The T/C is 97 % of control under setting [10], 100 % of control under setting [11], 92 % of control under setting [12] and 103 % of control under setting [13].

For `O=C1CC(c2ccccc2Cl)N(S(=O)(=O)c2ccccc2)N1` (configuration not stated), the T/C by setting is: under setting [6], 112 % of control; under setting [7], 104 % of control; under setting [9], 107 % of control; under setting [10], 102 % of control; under setting [12], 106 % of control; under setting [13], 102 % of control.

Consider `CC=C1C(C(=O)O)C1C(=O)O` (configuration not stated), for which the T/C runs as follows: (dose: 25.0 mg/kg/injection, schedule: Q01DX009 (ip), vehicle: Klucel (hydroxypropylcellulose) (HPC)) 93 % of control; (dose: 50.0 mg/kg/injection, schedule: Q01DX009 (ip), vehicle: Klucel (hydroxypropylcellulose) (HPC)) 93 % of control; under setting [1], 95 % of control and 96 % of control; (dose: 100.0 mg/kg/injection, schedule: Q04DX002 (ip), vehicle: saline) 115 % of control; (dose: 200.0 mg/kg/injection, schedule: Q04DX002 (ip), vehicle: saline) 107 % of control; (dose: 400.0 mg/kg/injection, schedule: Q04DX002 (ip), vehicle: saline) 113 % of control.

On to `ClCC[n+]1csc2ccccc21`, for which the T/C (dose: 10.0 mg/kg/injection, schedule: Q01DX Z (ip), vehicle: saline) was 91 % of control; the T/C (dose: 30.0 mg/kg/injection, schedule: Q01DX Z (ip), vehicle: saline) was 94 % of control; the T/C (dose: 100.0 mg/kg/injection, schedule: Q01DX Z (ip), vehicle: saline) is 96 % of control; the T/C (dose: 300.0 mg/kg/injection, schedule: Q01DX Z (ip), vehicle: saline) is 110 % of control.

Consider `NCCCS`, for which the T/C reads like this: (dose: 75.0 mg/kg/injection, schedule: Q01DX001 (ip), vehicle: saline) 96 % of control; (dose: 150.0 mg/kg/injection, schedule: Q01DX001 (ip), vehicle: saline) 96 % of control.

Regarding `Cc1nc2cnc(N)nc2nc1C`, the T/C reads like this: (dose: 16.0 mg/kg/injection, schedule: Q01DX Z (ip), vehicle: methylcellulose (MC)) 97 % of control; (dose: 31.0 mg/kg/injection, schedule: Q01DX Z (ip), vehicle: methylcellulose (MC)) 97 % of control; (dose: 62.0 mg/kg/injection, schedule: Q01DX Z (ip), vehicle: methylcellulose (MC)) 109 % of control; (dose: 100.0 mg/kg/injection, schedule: Q01DX001 (ip), vehicle: other) 96 % of control; (dose: 125.0 mg/kg/injection, schedule: Q01DX Z (ip), vehicle: methylcellulose (MC)) 89 % of control and 90 % of control; (dose: 200.0 mg/kg/injection, schedule: Q01DX001 (ip), vehicle: other) 101 % of control. Further, the T/C was 91 % of control (dose: 250.0 mg/kg/injection, schedule: Q01DX Z (ip), vehicle: methylcellulose (MC)); 98 % of control (dose: 400.0 mg/kg/injection, schedule: Q01DX001 (ip), vehicle: other); 93 % of control (dose: 500.0 mg/kg/injection, schedule: Q01DX Z (ip), vehicle: methylcellulose (MC)).

For `CC(=O)C1Cc2ccccc2C1=O` (configuration not stated), the T/C is, setting by setting: under setting [4], 100 % of control; under setting [5], 97 % of control; under setting [8], 106 % of control; under setting [11], 108 % of control.

As for `CCCCOC(=O)c1ccc(NC(=O)Nc2cc([N+](=O)[O-])ccc2F)cc1`, the T/C is 93 % of control under setting [14], 104 % of control under setting [15] and 93 % of control under setting [16].

Consider `CC(=O)OC1CCC2(C)C(=CCC3C2CCC2(C)C3CC3C(c4ccccc4)=NN(c4ccccc4)C32C(C)=O)C1` (configuration not stated), for which the T/C is 92 % of control under setting [14], 103 % of control under setting [15] and 92 % of control under setting [16].

Consider `COc1cc2cc3c4cc(OC)c(OC)cc4cc[n+]3c(/C=C/c3cccc([N+](=O)[O-])c3)c2cc1OC`, for which the T/C runs as follows: (dose: 100.0 mg/kg/injection, schedule: Q04DX002 (ip), vehicle: carboxymethylcellulose (CMC)) 113 % of control; (dose: 100.0 mg/kg/injection, schedule: Q04DX002 (ip), vehicle: other) 97 % of control and 105 % of control and 109 % of control; (dose: 100.0 mg/kg/injection, schedule: Q04DX003 (ip), vehicle: other) 107 % of control; (dose: 200.0 mg/kg/injection, schedule: Q04DX002 (ip), vehicle: carboxymethylcellulose (CMC)) 109 % of control; (dose: 200.0 mg/kg/injection, schedule: Q04DX002 (ip), vehicle: other) 94 % of control and 104 % of control and 123 % of control; (dose: 200.0 mg/kg/injection, schedule: Q04DX003 (ip), vehicle: other) 119 % of control. For the same compound, the T/C reads like this: (dose: 400.0 mg/kg/injection, schedule: Q04DX002 (ip), vehicle: carboxymethylcellulose (CMC)) 109 % of control; (dose: 400.0 mg/kg/injection, schedule: Q04DX002 (ip), vehicle: other) 108 % of control and 119 % of control; (dose: 400.0 mg/kg/injection, schedule: Q04DX003 (ip), vehicle: other) 105 % of control; (dose: 800.0 mg/kg/injection, schedule: Q04DX002 (ip), vehicle: other) 112 % of control.

Consider `Cc1ccc(S(=O)(=O)N(Cc2cccc([N+](=O)[O-])c2)c2ccc(C(=O)O)cc2)cc1`, for which the T/C under setting [14] is 91 % of control, the T/C under setting [15] was 98 % of control and the T/C under setting [16] was 102 % of control.
